1 compound from US20080299123A1, “TREATMENT OF CHEMOTHERAPY- OR RADIOTHERAPY-RESISTANT TUMORS” (Deutsches Krebsforschungszentrum Stiftung des offentlichen …, priority 2006, published 2008) can be followed below.

For experiment [1], the system named is L1CAM transfected PT45-P1 cells. Briefly: Caspase-3/-7 assay in L1CAM transfected PT45-P1 cells. The following applies: inhibitor 10 μmol/L, 20 μg/mL etoposide 24 hours. The format is cell-based, human. As for the experimental part: PT45-P1res cells (a,b) or PT45-P1 cells transfected with L1CAM or an empty control vector (mock) (c,d) were left untreated (w/o) or were either treated with Tapi-0, Tapi-1, GM6001 or L685,458 (each 10 μmol/L) for 24 hours. (a,c) Cellular lysates were subjected to western blotting using either the antibody clone UJ127 from Acris detecting only full-length L1CAM or the pcytL1 antibody detecting also the cytoplasmic part of L1CAM. HSP90 was detected as a control for equal protein load. (b,d) Thirty minutes after treatment with the respective inhibitor, cells were either left untreated or treated with 20 μg/mL etoposide for 24 hours. Then, cells were analysed for caspase-3/-7 activity expressed as n-fold induction of caspase-3/-7 activity of basal. Means±SD from three independent experiments are shown. * indicates p<0.05.
(§1) As described elsewhere (Sebens Müerköster et al., 2006), apoptosis was determined by staining with annexinV/propidium iodide (Biocarta, Hamburg, Germany) and subsequent fluorescence flow cytometry (GalaxyArgon Plus; DAKO Cytomation, Hamburg, Germany) using the FLOMAX software, and by the detection of caspase-3/-7 activity using a homogeneous luminescent assay (Promega, Mannheim, Germany). All samples were measured in duplicates.
(§2) For L1CAM transfection, PT45-P1 cells were seeded into 6 well plates (2×10^5 cells/well), were grown overnight, followed by transfection with 5 μL/well DIMRIE reagent (Invitrogen) and 0.6 μg/well of the following plasmids: pcDNA3.1 (mock) or pcDNA3.1-L1CAM (L1CAM). Upon transfection for 18 hours, 1 mL medium containing 20% FCS was added and cells were left untreated or were treated as indicated for further 24 hours. For knock down of L1CAM, PT45-P1res cells were seeded into 12 well plates (1×10^5 cells/well), were grown overnight followed by transfection with 12 μL/well RNAiFect reagent (Invitrogen) and 2 μg/well of either Stealth negative control siRNA (Invitrogen) or Stealth L1CAM siRNA (Invitrogen). After overnight transfection, cells were either left untreated or treated as indicated for further 24 hours.

Experiment [2] relates to PT45-P1res cells. Briefly: Caspase-3/-7 assay in PT45-P1res cells. In kind it is cell-based, human. Conditions: inhibitor 10 μmol/L, 20 μg/mL etoposide 24 hours. On the procedure:
(a) PT45-P1 res cells were transfected with control siRNA or with two L1CAM specific siRNAs. Western blotting for the detection of full-length L1CAM or of HSP90 as a control for equal protein load was performed (upper panel). In parallel, siRNA transfected PT45-P1res cells were treated with 20 μg/mL etoposide or not for 24 hours and caspase-3/-7 activity was determined. (b) siRNA transfected PT45-P1res cells were subjected to L1CAM immunostaining (L1-11A antibody) or staining with an isotype matched control antibody followed by flow cytometry. One representative histogram is shown. (c) siRNA transfected PT45-P1res cells were analysed by western blotting for the detection of full-length L1 CAM, αv-integrin or HSP90 (d) After overnight siRNA transfection, cells were either left untreated or were either treated with 20 μg/mL etoposide or with 5 μg/mL gemcitabine for 24 hours, followed by either AnnexinV/PI staining and flow cytometry (AnnexinV positive cells over basal) or by caspase-3/-7 assay (n-fold induced caspase-3/-7 activity of basal). (e) PT45-P1res cells were either left untreated (w/o) or were treated with 20 μg/mL etoposide in the absence (w/o) or presence of either 5 μg/mL anti L1CAM antibody (Clone L1-11A) or 5 μg/mL isotype matched control antibody. After 24 hours, cells were analysed by AnnexinV/PI staining or by caspase-3/-7 assay. Means±SD from three independent experiments are shown. * indicates p<0.05.
as §1, §2

SMILES strings stand for the structures.

For `CC(C)C[C@H](CC(=O)NO)C(=O)N[C@@H](Cc1ccc2ccccc2c1)C(=O)N[C@@H](C)C(N)=O` [TAPI-0], the “apoptosis inducing effect of etoposide (caspase-3/-7)” value in experiment [1] is given as “nor affect the apoptosis inducing effect of etoposide”. Besides, the “apoptosis induction after etoposide treatment (caspase-3/-7)” value in experiment [2] is given as “did not significantly affect apoptosis induction after etoposide treatment”.
